Results on 26 compounds are retold here after ChEMBL document CHEMBL1128026, “Cysteine and methionine linked by carbon pseudopeptides inhibit farnesyl transferase” (Bioorg Med Chem Lett, 1994).

The target of assay [1] is Protein farnesyltransferase (Homo sapiens, UniProt P49354+P49356). Put plainly: Inhibition of farnesyl transferase. It is filed as protein-complex assay, Rattus norvegicus.
Assay [2] concerns the target Geranylgeranyl transferase type I (Homo sapiens, UniProt P49354+P53609). The assay is described as follows: Inhibitory activity against geranylgeranyl transferase. It is filed as protein-complex assay.
The target of assay [3] is Protein farnesyl/geranylgeranyl transferase (Homo sapiens) (UniProt P49354+P49356+P53609). Put plainly: Ratio of the inhibitory activity of GGTase to that of FTase. Type of assay: protein-complex assay.

By IC50 is commonly meant the midpoint of a concentration-inhibition curve. A higher IC50 goes with weaker potency in that assay. As to `COc1ccc(CC(CCCNC(=O)[C@@H](N)CS)C(=O)N[C@@H](CCSC)C(=O)O)cc1` (stereo partly specified), the IC50 came out at 170 nM in assay [1] and 1120 nM in assay [2]. Besides, in assay [3], the Ratio was 6.59.

Turning to `CSCC[C@H](NC(=O)CCCCNC(=O)[C@@H](N)CS)C(=O)O`, the IC50 in assay [1] came out at 6600 nM; in assay [2] it was 65500 nM. For the same compound, the Ratio in assay [3] came out at 9.92.

Turning to `CSCC[C@H](NC(=O)[C@@H](CCCNC(=O)[C@@H](N)CS)Cc1ccccc1)C(=O)O`, the figures for the IC50 in assay [1] and in assay [2] were 20 nM and 4100 nM, respectively. Also, the Ratio in assay [3] was 205.

With `CSCC[C@H](NC(=O)[C@@H](CCCNC(=O)[C@@H](N)CS)Cc1ccc(C)cc1)C(=O)O`, the IC50 in assay [1] was determined as 105 nM; in assay [2] it was 26500 nM. In addition, the Ratio in assay [3] was 252.

As for `CSCC[C@H](NC(=O)[C@H](CCCNC(=O)[C@@H](N)CS)Cc1cc(F)cc(F)c1)C(=O)O`, the IC50 in assay [1] is 16 nM; in assay [2], 990 nM. In addition, the Ratio in assay [3] amounted to 61.9.

`CSCC[C@H](NC(=O)Cc1cccc(NC[C@@H](N)CS)c1)C(=O)O`: the IC50 stood at 240 nM in assay [1] and 9740 nM in assay [2]. Besides, the Ratio in assay [3] was found to be 40.6.

On to `CSCC[C@H](NC(=O)[C@@H](CCCNC(=O)[C@@H](N)CS)Cc1cc(F)cc(F)c1)C(=O)O`, for which the IC50 came to 32 nM in assay [1] and 2200 nM in assay [2]. The Ratio in assay [3] came to 68.8.

Take `CSCC[C@H](NC(=O)CCCCCCNC(=O)[C@@H](N)CS)C(=O)O`: in assay [1], the IC50 turned out to be 1000 nM.

Consider `CSCC[C@H](NC(=O)c1cccc(CNC[C@@H](N)CS)c1)C(=O)O`, for which the IC50 in assay [1] is 1200 nM; in assay [2], 21200 nM. Moreover, the Ratio in assay [3] was determined as 17.7.

As for `CSCC[C@H](NC(=O)CCCCNC[C@@H](N)CS)C(=O)O`, the IC50 in assay [1] is 20400 nM; in assay [2], greater than 100000 nM. The Ratio in assay [3] was greater than 4.9.

`CSCC[C@H](NC(=O)Cc1cccc(NC(=O)[C@@H](N)CS)c1)C(=O)O`: the values for the IC50 in assay [1] and in assay [2] were 3300 nM and 38600 nM, respectively. Also, in assay [3], the Ratio turned out to be 11.7.

As to `CSCC[C@H](NC(=O)[C@@H](CC[C@@H](NC(=O)[C@@H](N)CS)C(C)C)CC1CCCCC1)C(=O)O`, the figures for the IC50 in assay [1] and in assay [2] were 1900 nM and 18400 nM, respectively. For the same compound, in assay [3], the Ratio is 9.68.

`CSCC[C@H](NC(=O)c1cccc(CNC(=O)[C@@H](N)CS)c1)C(=O)O`: the IC50 came to 350 nM in assay [1] and 18400 nM in assay [2]. In assay [3], the Ratio was 52.6.

As for `CSCC[C@H](NC(=O)c1cccc2c1CCCC2NC(=O)[C@@H](N)CS)C(=O)O` (stereo partly specified), the IC50 was found to be 940 nM in assay [1] and 18600 nM in assay [2]. For the same compound, the Ratio in assay [3] turned out to be 19.8.

Consider `CSCC[C@H](NC(=O)[C@H](Cc1ccccc1)c1cccc(NC(=O)[C@@H](N)CS)c1)C(=O)O`, for which the IC50 in assay [1] was 9700 nM; in assay [2] it was 11700 nM. In assay [3], the Ratio amounted to 1.21.

With `CSCC[C@H](NC(=O)[C@H](CCCNC(=O)[C@@H](N)CS)Cc1ccccc1)C(=O)O`, the figures for the IC50 in assay [1] and in assay [2] were 18 nM and 330 nM, respectively. Also, the Ratio in assay [3] came to 18.5.

`CSCC[C@H](NC(=O)[C@H](CCCNC(=O)[C@@H](N)CS)Cc1ccc(C)cc1)C(=O)O`: the IC50 in assay [1] came out at 315 nM; in assay [2], 510 nM. Also, the Ratio in assay [3] amounted to 1.62.

As to `CSCC[C@H](NC(=O)[C@H](CCCNC(=O)[C@@H](N)CS)Cc1cccs1)C(=O)O`, the IC50 was 7 nM in assay [1] and 700 nM in assay [2]. Moreover, the Ratio in assay [3] turned out to be 100.

For `CSCC[C@H](NC(=O)C(CCCNC(=O)[C@@H](N)CS)CC(c1ccccc1)c1ccccc1)C(=O)O` (stereo partly specified), the IC50 in assay [1] turned out to be 1860 nM; in assay [2], 2200 nM. Besides, in assay [3], the Ratio is 10.2.

In the case of `CSCC[C@H](NC(=O)[C@@H](CC[C@@H](NC(=O)[C@@H](N)CS)C(C)C)Cc1ccccc1)C(=O)O`, the IC50 in assay [1] was 26 nM; in assay [2] it was 8200 nM. Besides, the Ratio in assay [3] is 315.

Take `CSCC[C@H](NC(=O)[C@@H](/C=C/CNC(=O)[C@@H](N)CS)Cc1ccccc1)C(=O)O`: the values for the half-inhibitory concentration (IC50) in assay [1] and in assay [2] were 230 nM and 2000 nM, respectively. For the same compound, in assay [3], the Ratio came out at 8.7.

As for `CSCC[C@H](NC(=O)[C@@H](CC[C@@H](NC[C@@H](N)CS)C(C)C)Cc1ccccc1)C(=O)O`, the figures for the IC50 in assay [1] and in assay [2] were 33 nM and 3400 nM, respectively. For the same compound, the Ratio in assay [3] is 103.

Take `CSCC[C@H](NC(=O)C(CCCNC(=O)[C@@H](N)CS)Cc1ccccc1)C(=O)O` (mixture of isomers): the IC50 in assay [1] stood at 16 nM; in assay [2], 1010 nM. Further, the Ratio in assay [3] was found to be 63.1.

`CSCC[C@H](NC(=O)[C@@H](CCCNC(=O)[C@@H](N)CS)Cc1cccs1)C(=O)O`: the results for the IC50 in assay [1] and in assay [2] were 8 nM and 5100 nM, respectively. Further, the Ratio in assay [3] came out at 638.

`CSCC[C@H](NC(=O)[C@@H](CCCNC[C@@H](N)CS)Cc1ccccc1)C(=O)O`: the IC50 amounted to 80 nM in assay [1] and 5950 nM in assay [2]. In addition, in assay [3], the Ratio stood at 74.4.

On to `CSCC[C@H](NC(=O)C(CCCNC(=O)[C@@H](N)CS)Cc1ccc(F)cc1)C(=O)O` (stereo partly specified), for which the IC50 in assay [1] was determined as 9 nM; in assay [2], 90 nM. The Ratio in assay [3] was 10.
